Drawing on patent US7473790B2 (Pfizer Inc., priority 2003, dated 2009), this text covers IC50 and inhibition for 22 compounds.

For orientation: IC50 means the concentration needed to halve the response being measured. What is called inhibition is the change of the read-out against control, counted positive when it falls.

The assay has as its target T1, HCV polymerase (Hepatitis C virus genotype 1b, UniProt P26663).
T1 construct: 2.5 pmoles (0.15 μg) HCV polymerase protein in a final volume of 75 μL
Briefly: HCV polymerase primer/template-directed transcription assay (32P-GTP incorporation, filter binding). Type of assay: biochemical. The settings on record: for IC50: recombinant HCV polymerase, 30 minutes at 30° C., concentration giving 50% inhibition of polymerase-directed transcription, read-out: IC50; for inhibition at 50 µM: @ 50 uM compound, given where IC50 was impractical to calculate, read-out: percent inhibition. In a few lines:
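IC50s come from triplicate cpm, refit with an enzyme-concentration (30 nM) correction when under 200 nM. Reactions ran 30 min at 30° C in Tris pH 7.2 with MgCl2, 1 μM GTP spiked with α-32P-GTP, biotin-dG12 primer and poly(rC)300 template, with 1% DMSO. Incorporated label was collected on DE filtermats and counted.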

T1 sequence (P26663 2420-3010): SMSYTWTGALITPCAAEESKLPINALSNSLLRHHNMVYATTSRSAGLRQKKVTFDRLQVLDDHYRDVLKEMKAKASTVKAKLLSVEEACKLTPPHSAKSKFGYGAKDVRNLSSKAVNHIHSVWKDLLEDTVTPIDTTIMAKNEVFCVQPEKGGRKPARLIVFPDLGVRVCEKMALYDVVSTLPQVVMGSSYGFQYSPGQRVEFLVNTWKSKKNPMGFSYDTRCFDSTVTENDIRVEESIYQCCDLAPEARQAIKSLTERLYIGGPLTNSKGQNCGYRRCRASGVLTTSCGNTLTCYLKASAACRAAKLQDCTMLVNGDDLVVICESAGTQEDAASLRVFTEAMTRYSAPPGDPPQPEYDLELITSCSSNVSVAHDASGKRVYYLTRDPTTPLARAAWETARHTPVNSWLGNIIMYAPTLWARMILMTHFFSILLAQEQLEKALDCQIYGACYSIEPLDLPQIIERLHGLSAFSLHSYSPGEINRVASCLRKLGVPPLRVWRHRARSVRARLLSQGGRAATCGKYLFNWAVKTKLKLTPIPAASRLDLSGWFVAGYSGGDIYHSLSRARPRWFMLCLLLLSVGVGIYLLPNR

Turning to `Cc1cc(C)n2nc(CC3=C(O)CC(CCc4ccc(O)c(CC(F)(F)F)c4)(C4CCCC4)OC3=O)nc2n1` (stereo not shown) [A(225), 6-cyclopentyl-3-[(5,7-dimethyl[1,2,4]triazolo[1,5-a]pyrimidin-2-yl)methyl]-4-hydroxy-6-{2-[4-hydroxy-3-(2,2,2-trifluoroethyl)phenyl]ethyl}-5,6-dihydro-2H-pyran-2-one], the IC50 amounted to 3 nM. On the same count and under the same terms, with `Cc1cc(C)n2nc(CC3=C(O)CC(CCc4ccc(C5(C#N)CC5)c(Cl)c4)(C4CCCC4)OC3=O)nc2n1` (racemic) [A(201), 1-(2-Chloro-4-{2-[2-cyclopentyl-5-(5,7-dimethyl-[1,2,4]triazolo[1,5a]pyrimidin 2-ylmethyl)-4-hydroxy-6-oxo-3,6-dihydro-2H-pyran-2-yl]-ethyl}-phenyl)-cyclopropanecarbonitrile] the figure was 12 nM. `COc1ccc(CCC2(C3CCCC3)CC(O)=C(Cc3ccc(C#N)cc3)C(=O)O2)cc1Cl` (stereo not shown) [B(22), 4-{6-[2-(3-Chloro-4-methoxy-phenyl)-ethyl]-6-cyclopentyl-4-hydroxy-2-oxo-5,6-dihydro-2-pyran-3-ylmethyl}-benzonitrile]: the IC50 came to 1200 nM.

Take `Cc1cc(C)n2nc(CC3=C(O)CC(CCc4ccc(Cl)c(Cl)c4)(C4CCCC4)OC3=O)nc2n1` (stereo not shown) [B(38), 6-Cyclopentyl-6-[2-(3,4-dichloro-phenyl)-ethyl]-3-(5,7-dimethyl-[1,2,4]triazolo[1,5-a]pyrimidin-2-ylmethyl)-4-hydroxy-5,6-dihydro-pyran-2-one]: the half-inhibitory concentration (IC50) was 21 nM. Consider `COc1ccc(CCC2(C3CCCC3)CC(O)=C(Cc3nc4nc(C)cc(C)n4n3)C(=O)O2)cc1F` (stereo not shown) [B(01)], for which the half-inhibitory concentration (IC50) was 15 nM. Still for that read-out and setting: with `COc1ccc(CCC2(C3CCCC3)CC(O)=C(Cc3nc4nc(C)cc(C)n4n3)C(=O)O2)cc1C1CC1` (stereo not shown) [B(107), 6-Cyclopentyl-6-[2-(3-cyclopropyl-4-methoxy-phenyl)-ethyl]-3-(5,7-dimethyl-[1,2,4]triazolo[1,5-a]pyrimidin-2-ylmethyl)-4-hydroxy-5,6-dihydro-pyran-2-one] the figure was 6 nM; with `CC(C)(C#N)c1ccc(OCC2(C3CCCC3)CC(=O)CC(=O)O2)cc1F` (stereo not shown) [C(110), 2-[4-(2-Cyclopentyl-4,6-dioxo-tetrahydro-pyran-2-ylmethoxy)-2-fluoro-phenyl]-2-methyl-propionitrile], 7600 nM; with `Cn1c(CC2=C(O)CC(CCc3ccc(OCC4CC4)c(Cl)c3)(C3CCCC3)OC2=O)nc2ccccc21` (stereo not shown) [B(26), 6-[2-(3-Chloro-4-cyclopropylmethoxy-phenyl)-ethyl]-6-cyclopentyl-4-hydroxy-3-(1-methyl-1H-benzoimidazol-2-ylmethyl)-5,6-dihydro-pyran-2-one], 2300 nM.

As for `CNC(=O)N[C@H](C)c1ccc(CCC2(C3CCCC3)CC(=O)CC(=O)O2)cc1` (stereo partly shown) [A(41), 1-(1-{4-[2-(2-Cyclopentyl-4,6-dioxo-tetrahydro-pyran-2-yl)-ethyl]-phenyl}-ethyl)-3-methyl-urea], the IC50 came to 13000 nM. For `O=C1CC(=O)OC(CSc2ncccn2)(C2CCCC2)C1` (stereo not shown) [I(1), 6-cyclopentyl-6-[(pyrimidin-2-ylthio)methyl]dihydro-2H-pyran-2,4(3H)-dione], the inhibition at 50 µM is 27%. For the compound `COC(=O)C(C)(C)Oc1ccc(CCC2(C3CCCC3)CC(=O)CC(=O)O2)cc1Cl` (stereo not shown) [A(53), 2-{2-Chloro-4-[2-(2-cyclopentyl-4,6-dioxo-tetrahydro-pyran-2-yl)-ethyl]-phenoxy}-2-methyl-propionic acid methyl ester], the concentration for half-maximal inhibition (IC50) worked out at 3300 nM.

Take `O=C1CC(=O)OC(CCc2cccc(CCO)c2)(C2CCCC2)C1` (stereo not shown) [A(80), 6-Cyclopentyl-6-{2-[3-(2-hydroxy-ethyl)-phenyl]-ethyl}-dihydro-pyran-2,4-dione]: the IC50 came out at 20000 nM. Same read-out and setting: with `CCOC(=O)c1cnc2nc(SC3=C(O)CC(CCc4ccc(OC)c(Cl)c4)(C4CCCC4)OC3=O)nn2c1` (stereo not shown) [C(94), ethyl 2-({6-[2-(3-chloro-4-methoxyphenyl)ethyl]-6-cyclopentyl-4-hydroxy-2-oxo-5,6-dihydro-2H-pyran-3-yl}thio)[1,2,4]triazolo[1,5-a]pyrimidine-6-carboxylate] the figure was 87 nM; with `CCc1cc(CCC2(C3CCCC3)CC(O)=C(Cc3nc4nc(C)cc(C)n4n3)C(=O)O2)ccc1OCCNC(C)=O` (stereo not shown) [A(139), N-{2-[4-(2-{2-cyclopentyl-5-[(5,7-dimethyl[1,2,4]triazolo[1,5-a]pyrimidin-2-yl)methyl]-4-hydroxy-6-oxo-3,6-dihydro-2H-pyran-2-yl}ethyl)-2-ethylphenoxy]ethyl}acetamide], 2 nM; with `Cc1cc(C)n2nc(CC3=C(O)CC(CCc4ccc(C(C)C)c(F)c4)(C4CCCC4)OC3=O)nc2n1` (stereo not shown) [B(45), 6-cyclopentyl-3-[(5,7-dimethyl[1,2,4]triazolo[1,5-a]pyrimidin-2-yl)methyl]-6-[2-(3-fluoro-4-isopropylphenyl)ethyl]-4-hydroxy-5,6-dihydro-2H-pyran-2-one], 53 nM. On the same count and under the same terms, in the case of `CCc1cc(CCC2(C3CCCC3)CC(O)=C(Cc3nc4ncc(C)cn4n3)C(=O)O2)c(OC)cc1O` (racemic) [A(213), 3-[(6-methyl[1,2,4]triazolo[1,5-a]pyrimidin-2-yl)methyl]-6-cyclopentyl-6-[2-(5-ethyl-4-hydroxy-2-methoxyphenyl)ethyl]-4-hydroxy-5,6-dihydro-2H-pyran-2-one] it was 4.5 nM. Turning to `CCc1cc(CCC2(C3CCCC3)CC(O)=C(Cc3nc4ncc(C)cn4n3)C(=O)O2)c2c(c1O)CCO2` (stereo not shown) [A(182), 6-Cyclopentyl-6-[2-(5-ethyl-4-hydroxy-2,3-dihydro-benzofuran-7-yl)-ethyl]-4-hydroxy-3-(6-methyl-[1,2,4]triazolo[1,5-a]pyrimidin-2-ylmethyl)-5,6-dihydro-pyran-2-one], the IC50 came to 4 nM.

For the compound `Cc1cc(C)n2nc(CC3=C(O)CC(CCc4ccc(C(C)(C)C#N)c(Cl)c4)(C4CCCC4)OC3=O)nc2n1` (stereo not shown) [A(146), 2-(2-Chloro-4-{2-[2-cyclopentyl-5-(5,7-dimethyl-[1,2,4]triazolo[1,5-a]pyrimidin-2-ylmethyl)-4-hydroxy-6-oxo-3,6-dihydro-2H-pyran-2-yl]-ethyl}-phenyl)-2-methyl-propionitrile], the half-maximal inhibitory concentration (IC50) amounted to 2 nM. On to `COc1ccc(CCC2(C3CCCC3)CC(O)=C(Sc3nnc(CN(C)C)n3C)C(=O)O2)cc1Cl` (stereo not shown) [C(97), 6-[2-(3-chloro-4-methoxyphenyl)ethyl]-6-cyclopentyl-3-({5-[(dimethylamino)methyl]-4-methyl-4H-1,2,4-triazol-3-yl}thio)-4-hydroxy-5,6-dihydro-2H-pyran-2-one], for which the IC50 worked out at 120 nM.

`O=C1CC(=O)OC(CCc2ccc(CCO)c(F)c2)(C2CCCC2)C1` (stereo not shown) [A(120)]: the 50% inhibitory concentration (IC50) came to 13000 nM. Take `CCOc1ccc2nc(SCC3(C4CCCC4)CC(=O)CC(=O)O3)sc2c1` (stereo not shown) [I(3), 6-cyclopentyl-6-{[(6-ethoxy-1,3-benzothiazol-2-yl)thio]methyl}dihydro-2H-pyran-2,4(3H)-dione]: the inhibition at 50 µM was -2%. Turning to `COC(=O)c1nnc(SC2=C(O)CC(CCc3ccc(OC(C)C)c(F)c3)(C3CCCC3)OC2=O)n1C` (stereo not shown) [C(10), 5-{6-Cyclopentyl-6-[2-(3-fluoro-4-isopropoxy-phenyl)-ethyl]-4-hydroxy-2-oxo-5,6-dihydro-2H-pyran-3-ylsulfanyl}-4-methyl-4H-[1,2,4]triazole-3-carboxylic acid methyl ester], the half-maximal inhibitory concentration (IC50) turned out to be 16 nM.
